These compounds were tested against T1, F508del (Homo sapiens, UniProt P13569, DEL508-508) (assay: Protocol 1: membrane potential optical assay (FLIPR III, voltage sensing dye), identification of potentiator compounds). Conditions: Table 3, compounds of Table 1.
T1 construct: expressed in transfected cells
Format: cell-based
In short: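 Gating potentiation is read as a membrane-potential fluorescence change (FLIPR III, voltage-sensing dye) after one forskolin addition under a Cl− gradient, with gluconate replacing chloride, pH 7.4. Cells are F508del-expressing NIH3T3 mouse fibroblasts held 24 h at 27 °C and exposed to compound before dye loading.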

T1 sequence (P13569 with tags, fused parts or gaps DEL508-508): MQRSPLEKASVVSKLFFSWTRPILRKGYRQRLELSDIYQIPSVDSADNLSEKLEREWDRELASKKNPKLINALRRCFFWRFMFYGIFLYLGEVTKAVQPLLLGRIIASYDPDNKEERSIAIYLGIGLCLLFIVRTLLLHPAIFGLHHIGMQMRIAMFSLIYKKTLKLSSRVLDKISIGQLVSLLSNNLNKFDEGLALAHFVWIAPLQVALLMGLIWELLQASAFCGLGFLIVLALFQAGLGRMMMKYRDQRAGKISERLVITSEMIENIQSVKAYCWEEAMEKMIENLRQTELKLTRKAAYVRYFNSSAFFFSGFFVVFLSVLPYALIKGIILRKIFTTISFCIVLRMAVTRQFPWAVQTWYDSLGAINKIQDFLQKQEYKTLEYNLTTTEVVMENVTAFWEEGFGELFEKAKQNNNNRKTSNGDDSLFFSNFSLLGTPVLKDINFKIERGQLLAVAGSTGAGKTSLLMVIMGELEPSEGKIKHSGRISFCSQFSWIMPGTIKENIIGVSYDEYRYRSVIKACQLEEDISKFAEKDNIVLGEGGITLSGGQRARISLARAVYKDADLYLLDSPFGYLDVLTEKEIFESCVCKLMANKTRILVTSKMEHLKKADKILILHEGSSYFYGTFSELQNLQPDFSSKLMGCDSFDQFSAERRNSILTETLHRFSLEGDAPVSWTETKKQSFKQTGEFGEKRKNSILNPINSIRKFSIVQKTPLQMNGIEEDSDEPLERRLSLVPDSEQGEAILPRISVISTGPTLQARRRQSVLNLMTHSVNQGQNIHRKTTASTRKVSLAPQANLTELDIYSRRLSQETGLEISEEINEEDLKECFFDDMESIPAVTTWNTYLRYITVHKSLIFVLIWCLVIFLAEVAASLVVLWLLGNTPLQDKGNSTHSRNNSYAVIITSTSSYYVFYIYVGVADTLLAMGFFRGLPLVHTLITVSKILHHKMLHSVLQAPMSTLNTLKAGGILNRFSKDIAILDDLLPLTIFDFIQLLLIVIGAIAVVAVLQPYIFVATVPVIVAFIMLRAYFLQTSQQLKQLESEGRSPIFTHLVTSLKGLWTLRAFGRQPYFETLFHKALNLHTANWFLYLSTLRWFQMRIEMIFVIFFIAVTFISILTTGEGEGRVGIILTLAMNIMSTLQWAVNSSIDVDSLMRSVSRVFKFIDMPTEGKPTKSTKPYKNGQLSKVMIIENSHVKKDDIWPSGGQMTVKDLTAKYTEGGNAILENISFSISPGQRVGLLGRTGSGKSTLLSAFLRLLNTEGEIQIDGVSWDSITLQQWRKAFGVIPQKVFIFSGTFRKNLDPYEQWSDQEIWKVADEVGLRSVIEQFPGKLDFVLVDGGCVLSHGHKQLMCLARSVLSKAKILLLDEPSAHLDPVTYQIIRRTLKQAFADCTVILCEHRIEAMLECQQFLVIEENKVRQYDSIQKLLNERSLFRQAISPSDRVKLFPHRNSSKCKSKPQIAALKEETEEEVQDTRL

| EC30 | SMILES |
| --- | --- |
| ++ (“++” means between 3 uM and 10 uM) | CCOc1cc(-c2ccc(C(=O)NS(=O)(=O)c3ccc[nH]c3=O)c(Oc3c(C)cc(C)cc3C)n2)ccc1F [Compound 917, 6-(3-ethoxy-4-fluoro-phenyl)-N-[(2-oxo-1H-pyridin-3-yl)sulfonyl]-2-(2,4,6-trimethylphenoxy)pyridine-3-carboxamide] |
| +++ (“+++” means <3 uM) | Cc1cc(C)c(CN2c3ccccc3C[C@@H]2C(=O)NS(=O)(=O)c2ccccc2)c(C)c1 [Compound 918, (2R)—N-(benzenesulfonyl)-1-[(2,4,6-trimethylphenyl)methyl]indoline-2-carboxamide] |
| +++ (“+++” means <3 uM) | COc1cc(-c2ccc(C(=O)NS(=O)(=O)c3cccc(N)n3)c(Oc3c(C)cc(C)cc3C)n2)ccc1F [Compound 919, N-[(6-amino-2-pyridyl)sulfonyl]-6-(4-fluoro-3-methoxy-phenyl)-2-(2,4,6-trimethylphenoxy)pyridine-3-carboxamide] |
| +++ (“+++” means <3 uM) | COc1cccc(F)c1-c1ccc(C(=O)NS(=O)(=O)c2cccc(N)n2)c(Oc2c(C)cc(C)cc2C)n1 [Compound 920, N-[(6-amino-2-pyridyl)sulfonyl]-6-(2-fluoro-6-methoxy-phenyl)-2-(2,4,6-trimethylphenoxy)pyridine-3-carboxamide] |
| ++ (“++” means between 3 uM and 10 uM) | CC(C)Oc1ccc(-c2ccc(C(=O)NS(=O)(=O)c3cccc(N)n3)c(N3C[C@H]4CC[C@@H]3C4)n2)cn1 [Compound 921, N-[(6-amino-2-pyridyl)sulfonyl]-2-[(1S,4R)-3-azabicyclo[2.2.1]heptan-3-yl]-6-(6-isopropoxy-3-pyridyl)pyridine-3-carboxamide] |
| +++ (“+++” means <3 uM) | C[C@@H]1CC[C@H](C)N1c1nc(-c2cc(F)cc(OCC3CCC3)c2)ccc1C(=O)NS(=O)(=O)c1ccc[nH]c1=O [Compound 922, 6-[3-(cyclobutylmethoxy)-5-fluoro-phenyl]-2-[(2S,5R)-2,5-dimethylpyrrolidin-1-yl]-N-[(2-oxo-1H-pyridin-3-yl)sulfonyl]pyridine-3-carboxamide] |
| +++ (“+++” means <3 uM) | COc1cc(-c2ccc(C(=O)NS(=O)(=O)c3cccc(N)n3)c(Oc3c(C)cc(C)cc3C)n2)ccc1C#N [Compound 923, N-[(6-amino-2-pyridyl)sulfonyl]-6-(4-cyano-3-methoxy-phenyl)-2-(2,4,6-trimethylphenoxy)pyridine-3-carboxamide] |
| +++ (“+++” means <3 uM) | CC(C)Oc1ccc(-c2ccc(C(=O)NS(=O)(=O)c3cccc(N)n3)c(N3C(C)CC(C)C3C)n2)cn1 (centres unmarked) [Compound 925, N-[(6-amino-2-pyridyl)sulfonyl]-6-(6-isopropoxy-3-pyridyl)-2-(2,3,5-trimethylpyrrolidin-1-yl)pyridine-3-carboxamide] |
| ++ (“++” means between 3 uM and 10 uM) | Cn1ccc2c(Cn3nc(C(C)(C)C)cc3C(=O)NS(=O)(=O)c3cccc(N)c3)cccc21 [Compound 927, N-(3-aminophenyl)sulfonyl-5-tert-butyl-2-[(1-methylindol-4-yl)methyl]pyrazole-3-carboxamide] |
| +++ (“+++” means <3 uM) | CC(C)Oc1ccc(-c2ccc(C(=O)NS(=O)(=O)c3cccc(N)n3)c(N3CCCC3C3CC3)n2)cn1 (centres unmarked) [Compound 928, N-[(6-amino-2-pyridyl)sulfonyl]-2-(2-cyclopropylpyrrolidin-1-yl)-6-(6-isopropoxy-3-pyridyl)pyridine-3-carboxamide] |
| ++ (“++” means between 3 uM and 10 uM) | CCOCCc1ccc(C(=O)NS(=O)(=O)c2cccc(N)n2)c(Oc2c(C)cc(C)cc2C)n1 [Compound 929, N-[(6-amino-2-pyridyl)sulfonyl]-6-(2-ethoxyethyl)-2-(2,4,6-trimethylphenoxy)pyridine-3-carboxamide] |
| ++ (“++” means between 3 uM and 10 uM) | COc1ncc(-c2ccc(C(=O)NS(=O)(=O)c3ccc[nH]c3=O)c(Oc3c(C)cc(C)cc3C)n2)cc1C [Compound 930, 6-(6-methoxy-5-methyl-3-pyridyl)-N-[(2-oxo-1H-pyridin-3-yl)sulfonyl]-2-(2,4,6-trimethylphenoxy)pyridine-3-carboxamide] |
| + (“+” means greater than 10 uM) | CCOc1ccc(-c2ccc(C(=O)NS(=O)(=O)c3ccc[nH]c3=O)c(Oc3c(C)cc(C)cc3C)n2)cn1 [Compound 932, 6-(6-ethoxy-3-pyridyl)-N-[(2-oxo-1H-pyridin-3-yl)sulfonyl]-2-(2,4,6-trimethylphenoxy)pyridine-3-carboxamide] |
| ++ (“++” means between 3 uM and 10 uM) | CC(C)Oc1ccc(-c2ccc(C(=O)NS(=O)(=O)c3cccc(N)n3)c(NC3CCc4ccccc43)n2)cn1 (centres unmarked) [Compound 935, N-[(6-amino-2-pyridyl)sulfonyl]-2-(indan-1-ylamino)-6-(6-isopropoxy-3-pyridyl)pyridine-3-carboxamide] |
| ++ (“++” means between 3 uM and 10 uM) | Cc1cc(C)c(Oc2nc(-c3ccc4ccn(C)c4c3)ccc2C(=O)NS(=O)(=O)c2ccc[nH]c2=O)c(C)c1 [Compound 936, 6-(1-methylindol-6-yl)-N-[(2-oxo-1H-pyridin-3-yl)sulfonyl]-2-(2,4,6-trimethylphenoxy)pyridine-3-carboxamide] |
| +++ (“+++” means <3 uM) | Cc1cc(C)c(Oc2nc(C3=CCCCO3)ccc2C(=O)NS(=O)(=O)c2cccc(N)n2)c(C)c1 [Compound 937, N-[(6-amino-2-pyridyl)sulfonyl]-6-(3,4-dihydro-2H-pyran-6-yl)-2-(2,4,6-trimethylphenoxy)pyridine-3-carboxamide] |
| ++ (“++” means between 3 uM and 10 uM) | Cc1cc(C)c(Oc2nc(-c3cc(C)nn3C)ccc2C(=O)NS(=O)(=O)c2cccc(N)n2)c(C)c1 [Compound 938, N-[(6-amino-2-pyridyl)sulfonyl]-6-(2,5-dimethylpyrazol-3-yl)-2-(2,4,6-trimethylphenoxy)pyridine-3-carboxamide] |
| +++ (“+++” means <3 uM) | COc1ncccc1S(=O)(=O)NC(=O)c1ccc(-c2ccccc2)nc1Oc1c(C)cc(C)cc1C [Compound 939, N-[(2-methoxy-3-pyridyl)sulfonyl]-6-phenyl-2-(2,4,6-trimethylphenoxy)pyridine-3-carboxamide] |
| +++ (“+++” means <3 uM) | CC(C)Oc1ccc(-c2ccc(C(=O)NS(=O)(=O)c3cccc(N)n3)c(N3CCCCCC3)n2)cn1 [Compound 940, N-[(6-amino-2-pyridyl)sulfonyl]-2-(azepan-1-yl)-6-(6-isopropoxy-3-pyridyl)pyridine-3-carboxamide] |
| + (“+” means greater than 10 uM) | COc1nccc2c1cc(C(=O)NS(=O)(=O)c1cccc(N)c1)n2Cc1c(C)cc(C)cc1C [Compound 943, N-(3-aminophenyl)sulfonyl-4-methoxy-1-[(2,4,6-trimethylphenyl)methyl]pyrrolo[3,2-c]pyridine-2-carboxamide] |
| +++ (“+++” means <3 uM) | CCc1ccccc1-c1cnc(Oc2c(C)cc(C)cc2C)c(C(=O)NS(=O)(=O)c2cccc(N)n2)c1 [Compound 945, N-[(6-amino-2-pyridyl)sulfonyl]-5-(2-ethylphenyl)-2-(2,4,6-trimethylphenoxy)pyridine-3-carboxamide] |

| SMILES | EC30 |
| --- | --- |
| CC(C)COc1cc(F)cc(-c2ccc(C(=O)NS(=O)(=O)c3cccc(N)n3)c(N3C[C@H]4CC[C@@H]3C4)n2)c1 [Compound 924, N-[(6-amino-2-pyridyl)sulfonyl]-2-[(1S,4R)-3-azabicyclo[2.2.1]heptan-3-yl]-6-(3-fluoro-5-isobutoxy-phenyl)pyridine-3-carboxamide] | +++ (“+++” means <3 uM) |
| CC(C)COc1cc(F)cc(-c2ccc(C(=O)NS(=O)(=O)c3cccc(N)n3)c(N3CCCC34CCCC4)n2)c1 [Compound 926, N-[(6-amino-2-pyridyl)sulfonyl]-2-(9-azaspiro[4.4]nonan-9-yl)-6-(3-fluoro-5-isobutoxy-phenyl)pyridine-3-carboxamide] | +++ (“+++” means <3 uM) |
| CCC1CCN(c2nc(-c3cc(F)cc(OCC(C)C)c3)ccc2C(=O)NS(=O)(=O)c2cccc(N)n2)C1 (centres unmarked) [Compound 931, N-[(6-amino-2-pyridyl)sulfonyl]-2-(3-ethylpyrrolidin-1-yl)-6-(3-fluoro-5-isobutoxy-phenyl)pyridine-3-carboxamide] | +++ (“+++” means <3 uM) |
| CC(C)COc1cc(F)cc(-c2ccc(C(=O)NS(=O)(=O)c3cccc(N)n3)c(OCC3CCOCC3)n2)c1 [Compound 933, N-[(6-amino-2-pyridyl)sulfonyl]-6-(3-fluoro-5-isobutoxy-phenyl)-2-(tetrahydropyran-4-ylmethoxy)pyridine-3-carboxamide] | +++ (“+++” means <3 uM) |
| CC(C)COc1cc(F)cc(-c2ccc(C(=O)NS(=O)(=O)c3cccc(N)n3)c(N3[C@@H]4CCC[C@H]3CC4)n2)c1 [Compound 934, N-[(6-amino-2-pyridyl)sulfonyl]-2-[(1R,5S)-8-azabicyclo[3.2.1]octan-8-yl]-6-(3-fluoro-5-isobutoxy-phenyl)pyridine-3-carboxamide] | +++ (“+++” means <3 uM) |
| CC(C)COc1cc(-c2ccc(C(=O)NS(=O)(=O)c3ccc[nH]c3=O)c(N3CCC(C)CC3)n2)ccc1Cl [Compound 941, 6-(4-chloro-3-isobutoxy-phenyl)-2-(4-methyl-1-piperidyl)-N-[(2-oxo-1H-pyridin-3-yl)sulfonyl]pyridine-3-carboxamide] | +++ (“+++” means <3 uM) |
| CC(C)COc1cc(F)cc(-c2ccc(C(=O)NS(=O)(=O)c3ccn[nH]3)c(N3C[C@H](C)C[C@@H](C)C3)n2)c1 [Compound 942, 2-[(3R,5R)-3,5-dimethyl-1-piperidyl]-6-(3-fluoro-5-isobutoxy-phenyl)-N-(1H-pyrazol-5-ylsulfonyl)pyridine-3-carboxamide] | +++ (“+++” means <3 uM) |
| CC(C)COc1cc(F)cc(-c2ccc(C(=O)NS(=O)(=O)c3ccn[nH]3)c(N3CCC4(CCC4)CC3)n2)c1 [Compound 944, 2-(7-azaspiro[3.5]nonan-7-yl)-6-(3-fluoro-5-isobutoxy-phenyl)-N-(1H-pyrazol-5-ylsulfonyl)pyridine-3-carboxamide] | +++ (“+++” means <3 uM) |

Source: patent US10758534B2 (Vertex Pharmaceuticals Incorporated, priority 2014, dated 2020)
